# Assay results reported in patent US20220400679A1, “COMPOSITION FOR ENHANCING PLANT GROWTH” (CH Biotech R&D Co., Ltd., priority 2021, published 2022).
# Legend:
# [1] = test system: glutamine synthetase (GS) of corn plants; assay: Example 3 activity of glutamine synthetase, corn; assay type: in vivo; settings: 3 days after application, glyphosate vs Control group, FIG. 9
# Description: (§1) One seed was seeded in one pot.
# (§2) The leaf powder and 1 ml of extraction solution, containing 10 mM Tris-HCl (pH7.6), 1 mM MgCl2, 1 mM EDTA, and 10 mM 2-Mercaptoethanol, were centrifuged at 4° C., 13,000 rcf for 30 minutes. […] The sample was centrifuged at room temperature, 3,000 rcf. Absorbance at an O.D. of 540 nm (A540) of the supernatant was measured.
# [2] = test system: Glyphosate-tolerant corn plants (D40SS48); assay: Example 2 different concentrations of components with glyphosate: shoot dry weight, corn; assay type: in vivo; settings: glyphosate 4.87 g/L vs Control group (p<0.01), FIG. 3A
# Description: (§3) 2.1 Shoot dry weight: Seven (7) days after the application of reagents, leaves and stems of each plant were dried at 50° C. overnight, and then the dry weight was measured.
# as §1
# (§4) Methods for analyzing shoot dry weight and statistics are the same as described in Example 1.
# [3] = test system: nitrate reductase (NR) of corn plants; assay: Example 3 activity of nitrate reductase, corn; assay type: in vivo; settings: 3 days after application, glyphosate vs Control group, FIG. 8
# Description: as §1
# (§5) One (1) ml of potassium phosphate buffer (100 mM, pH7.4) containing 7.5 mM cysteine, 1 mM EDTA, and 1.5% casein was added to the sample, mixed with the sample, and then the mixed sample was centrifuged at 4° C., 13,000 relative centrifugal field (rcf) for 30 minutes. […] The sample was centrifuged at room temperature, 3,000 rcf. The supernatant was transferred to a new tube and mixed with 0.5 mL sulphanilamide (5.8 mM) and 0.5 mL N-(1-naphthyl)ethylenediamine (0.8 mM). The mixture was incubated for 30 minutes. […] KNO2 is used as a NO2^− concentration standard.
# [4] = test system: Glyphosate-tolerant corn plants (D40SS48); assay: Example 3 content of TBARS, corn; settings: 3 days after application, glyphosate vs Control group, FIG. 7
# [5] = test system: Glyphosate-tolerant soybean plants (S29RY05); assay: Example 3 content of TBARS, soybean; settings: 3 days after application, glyphosate vs Control group, FIG. 14
# [6] = test system: glutamate synthase (GOGAT) of soybean plants; assay: Example 3 activity of glutamate synthase, soybean; assay type: in vivo; settings: 3 days after application, glyphosate vs Control group, FIG. 17
# Description: as §1
# (§6) The leaf powder and 1 ml of extraction solution, containing 10 mM Tris-HCl (pH7.6), 1 mM MgCl2, 1 mM EDTA, and 10 mM 2-Mercaptoethanol, were centrifuged at 4° C., 13,000 rcf for 30 minutes. Zero-point-one-five (0.15) ml of the supernatant was mixed with the reaction solution containing 0.2 mL of 20 mM L-glutamine, 0.25 mL of 2 mM 2-oxoglutarate, 0.05 mL of 10 mM KCl, 1 mL of 25 mM Tris-HCl (pH7.6), and 0.1 mL 3 mM NADH to initiate the reaction. The GOGAT activity is determined by NADH reduction through measuring fluorescence intensity at excitation/emission wavelengths of 340/445 nm. NADH concentration is determined by reference to a NADH standard curve.
# [7] = test system: Glyphosate-tolerant corn plants (D40SS48); assay: Example 1 synergistic test with glyphosate: shoot dry weight, corn; assay type: in vivo; settings: 7 days after application, glyphosate 4.87 g/L vs Control group (p<0.01), FIG. 1A
# Description: as §1, §3
# (§7) 2.2 Statistics: Unpaired Student's t-test was applied to assess numerical data statistical significance. Statistical significance was set at p-value less than 0.05.
# [8] = test system: Glyphosate-tolerant corn plants (D40SS48); assay: Example 3 electrolyte leakage, corn; assay type: in vivo; settings: 3 days after application, glyphosate vs Control group, FIG. 6
# Description: as §1
# (§8) Six (6) leaf disks (7.5 mm diameter) were cut from the sample leaves and immersed in 10 ml of deionized water at 25° C. for 24 hours. After that, the first electrolytic conductivity (EC1) of the sample solution was analyzed with an electrical conductivity meter (SevenCompact™ 5230 Conductivity Meter, Mettler-Toledo, Columbus, Ohio, USA). The sample leaf disks were then kept in the deionized water at 95° C. for 2 hours. After the temperature of the sample solution decreased to 25° C., the second electrolytic conductivity (EC2) of the sample solution was analyzed with the electrical conductivity meter again. Ten (10) milliliters of deionized water without any sample were used as control. Electrolyte leakage of the sample leaves was analyzed with the following equation.
# (§9) Electrolyte leakage (%)=(Sample EC1−Control EC1)×100/(Sample EC2−Control EC2)
# [9] = test system: nitrate reductase (NR) of soybean plants; assay: Example 3 activity of nitrate reductase, soybean; assay type: in vivo; settings: 3 days after application, glyphosate vs Control group, FIG. 15
# Description: as §1, §5
# [10] = test system: glutamate synthase (GOGAT) of corn plants; assay: Example 3 activity of glutamate synthase, corn; assay type: in vivo; settings: 3 days after application, glyphosate vs Control group, FIG. 10
# Description: as §1, §6
# [11] = test system: Glyphosate-tolerant soybean plants (S29RY05); assay: Example 3 analyses of leaves and roots (growth) after glyphosate treatment, soybean; assay type: in vivo; settings: 7 days after application, glyphosate 4.87 g/L
# Description: as §1
# (§10) 2.1 Analyses of Leaves: Seven (7) days after the application of reagents, plant height was measured, and leaves were collected. The leaf area of the fourth leaf of each corn plant and the total leaf area of each soybean plant were measured by a leaf analyzer (WinFOLIA™ Regent Instruments Inc., Québec, Canada). Leaves and stems of each plant were dried at 50° C. overnight, and then the dry weight was measured.
# (§11) 2.2 Analyses of Roots: Seven (7) days after the application of reagents, length of plant root was measured by a root analyzer (WinRHIZO™, Regent Instruments Inc., Québec, Canada). In addition, roots of each plant were dried at 50° C. overnight, and then the dry weight was measured.
# [12] = test system: Glyphosate-tolerant corn plants (D40SS48); assay: Example 3 analyses of leaves and roots (growth) after glyphosate treatment, corn; assay type: in vivo; settings: 7 days after application, glyphosate 4.87 g/L, N = 10
# Description: as §1, §10, §11
# [13] = test system: Glyphosate-tolerant corn plants (D40SS48); assay: Example 3 content of plant hormones, corn; assay type: in vivo; settings: with glyphosate treatment (4.87 g/L), 12 days after application, N = 3
# Description: as §1
# (§12) 2.8 Content of Plant Hormones: Twelve (12) days after the application of reagents, 1 g of fresh sample leaf was ground in liquid nitrogen and then mixed with 10 g extraction solution (80% (v/v) methanol, 1% (v/v) acetic acid) by a vortex mixer. The sample was then sonicated for 1 hour and centrifuged at 2,500 rpm for 10 minutes. The supernatant was collected, concentrated, dissolved in 1 ml of 100% methanol, and then analyzed for content of plant hormones with a tandem quadrupole mass spectrometer (Waters® Xevo® TQ MS, Waters Corporation, Milford, Mass., USA) and ACQUITY UPLC System (Waters Corporation, Milford, Mass., USA).
# [14] = test system: Glyphosate-tolerant soybean plants (S29RY05); assay: Example 2 different concentrations of components with glyphosate: shoot dry weight, soybean; assay type: in vivo; settings: glyphosate 4.87 g/L vs Control group (p<0.01), FIG. 4A
# Description: as §3, §1, §4
# [15] = test system: glutamine synthetase (GS) of soybean plants; assay: Example 3 activity of glutamine synthetase, soybean; assay type: in vivo; settings: 3 days after application, glyphosate vs Control group, FIG. 16
# Description: as §1, §2
# [16] = test system: Glyphosate-tolerant soybean plants (S29RY05); assay: Example 3 content of plant hormones, soybean; assay type: in vivo; settings: with glyphosate treatment (4.87 g/L), 12 days after application, N = 3
# Description: as §1, §12
# [17] = test system: Glyphosate-tolerant soybean plants (S29RY05); assay: Example 3 electrolyte leakage, soybean; assay type: in vivo; settings: 3 days after application, glyphosate vs Control group, FIG. 13
# Description: as §1, §8, §9
# [18] = test system: Glyphosate-tolerant soybean plants (S29RY05); assay: Example 1 synergistic test with glyphosate: shoot dry weight, soybean; assay type: in vivo; settings: 7 days after application, glyphosate 4.87 g/L vs Control group (p<0.01), FIG. 2A
# Description: as §1, §3, §7
compound,measurement,setting,value
"O=C(O)CNCP(=O)(O)O [Glyphosate only, glyphosate]",activities of glutamine synthetase (GS),[1],decrease in activities
same,shoot dry weight,[2],significant decrease in shoot dry weight
same,activities of nitrate reductase (NR),[3],decrease in activities
same,TBARS level,[4],increase in TBARS level
same,TBARS level,[5],increase in TBARS level
same,activities of glutamate synthase (GOGAT),[6],decrease in activities
same,shoot dry weight,[7],significant decrease in shoot dry weight
same,electrolyte leakage,[8],increase in electrolyte leakage
same,activities of nitrate reductase (NR),[9],decrease in activities
same,activities of glutamate synthase (GOGAT),[10],decrease in activities
same,leaf curling symptoms (phenotype observation of soybean leaves),[11]; FIG. 12,causes leaf curling symptoms
same,necrotic areas (phenotype observation of soybean leaves),[11]; FIG. 12,necrotic areas
same,Root dry weight,[11]; N = 10,0.28 g
same,Shoot fresh weight,[11]; N = 10,2.46 g
same,The unifoliate leaf length,[11]; N = 10,4.54 cm
same,Total leaf area,[11]; N = 10,55.96 cm^2
same,Total root length,[11]; N = 10,2047.40 cm
same,Plant height,[12],42.70 cm
same,Root dry weight,[12],0.35 g
same,The 4th leaf area,[12],89.45 cm^2
same,Total root length,[12],1405.69 cm
same,shoot dry weight,[12],1.30 g
same,Phytohormone content: ABA,[13],2742 ng/g FW
same,Phytohormone content: Cytokinin (Zeatin+iPAs),[13],0.75 ng/g FW
same,Phytohormone content: GA1,[13],625 ng/g FW
same,Phytohormone content: IAA,[13],45 ng/g FW
same,shoot dry weight,[14],significant decrease in shoot dry weight
same,activities of glutamine synthetase (GS),[15],decrease in activities
same,Phytohormone content: ABA,[16],1189 ng/g FW
same,Phytohormone content: Cytokinin (Zeatin+iPAs),[16],0.68 ng/g FW
same,Phytohormone content: GA1,[16],832 ng/g FW
same,Phytohormone content: IAA,[16],28 ng/g FW
same,electrolyte leakage,[17],increase in electrolyte leakage
same,shoot dry weight,[18],significant decrease in shoot dry weight
